Reference: PubChem BioAssay AID248 (DTP/NCI, 2004)
Where “and” joins values, the source holds several entries; their conditions need not be identical. Equal values may be shown once. Inconclusive results and toxic doses are left out. Cut-off read from the data, not from the text of the source: active = T/C of 150% or more; inactive = T/C below 125%.

Test system: L1210 leukemia ip in BDF1 mice, survival T/C
Test: NCI In Vivo Anticancer Drug Screen. Data for tumor model L1210 Leukemia (intraperitoneal) in B6D2F1 (BDF1) mice
Conditions: endpoint: mean survival time, higher = longer survival
How it was run: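 Each compound was tested against a transplantable tumor grown in mice. The endpoint was survival, with treated animals benchmarked against vehicle controls as a simple ratio.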

[1] = dose: 100.0 mg/kg/injection, schedule: Q04DX003 (ip), vehicle: carboxymethylcellulose (CMC)
[2] = dose: 200.0 mg/kg/injection, schedule: Q04DX003 (ip), vehicle: carboxymethylcellulose (CMC)
[3] = dose: 100.0 mg/kg/injection, schedule: Q01DX009 (ip), vehicle: saline with Tween-80
[4] = dose: 100.0 mg/kg/injection, schedule: Q04DX002 (ip), vehicle: saline with Tween-80
[5] = dose: 200.0 mg/kg/injection, schedule: Q04DX002 (ip), vehicle: saline with Tween-80
[6] = dose: 400.0 mg/kg/injection, schedule: Q04DX002 (ip), vehicle: saline with Tween-80
[7] = dose: 100.0 mg/kg/injection, schedule: Q01DX009 (ip), vehicle: Klucel (hydroxypropylcellulose) (HPC)
[8] = dose: 200.0 mg/kg/injection, schedule: Q01DX009 (ip), vehicle: Klucel (hydroxypropylcellulose) (HPC)
[9] = dose: 400.0 mg/kg/injection, schedule: Q01DX009 (ip), vehicle: Klucel (hydroxypropylcellulose) (HPC)
[10] = dose: 50.0 mg/kg/injection, schedule: Q01DX009 (ip), vehicle: saline
[11] = dose: 100.0 mg/kg/injection, schedule: Q01DX009 (ip), vehicle: saline
[12] = dose: 200.0 mg/kg/injection, schedule: Q01DX009 (ip), vehicle: saline
[13] = dose: 100.0 mg/kg/injection, schedule: Q04DX003 (ip), vehicle: Klucel (hydroxypropylcellulose) (HPC)
[14] = dose: 200.0 mg/kg/injection, schedule: Q04DX003 (ip), vehicle: Klucel (hydroxypropylcellulose) (HPC)
[15] = dose: 400.0 mg/kg/injection, schedule: Q04DX003 (ip), vehicle: Klucel (hydroxypropylcellulose) (HPC)
[16] = dose: 100.0 mg/kg/injection, schedule: Q04DX003 (ip), vehicle: saline with Tween-80
[17] = dose: 100.0 mg/kg/injection, schedule: Q04DX003 (ip), vehicle: saline
[18] = dose: 200.0 mg/kg/injection, schedule: Q04DX003 (ip), vehicle: saline
[19] = dose: 400.0 mg/kg/injection, schedule: Q04DX003 (ip), vehicle: saline
[20] = dose: 200.0 mg/kg/injection, schedule: Q01DX009 (ip), vehicle: saline with Tween-80

Measured: T/C

CC(C)N(c1ccc(C(=O)O)cc1)C(C)C
inactive: dose: 100.0 mg/kg/injection, schedule: Q01DX009 (ip), vehicle: carboxymethylcellulose (CMC) 102 % of control and 109 % of control | dose: 100.0 mg/kg/injection, schedule: Q04DX002 (ip), vehicle: carboxymethylcellulose (CMC) 96 % of control and 98 % of control | [1] 101 % of control | dose: 200.0 mg/kg/injection, schedule: Q01DX009 (ip), vehicle: carboxymethylcellulose (CMC) 102 % of control and 103 % of control | dose: 200.0 mg/kg/injection, schedule: Q04DX002 (ip), vehicle: carboxymethylcellulose (CMC) 95 % of control and 104 % of control | [2] 98 % of control | dose: 400.0 mg/kg/injection, schedule: Q01DX009 (ip), vehicle: carboxymethylcellulose (CMC) 95 % of control and 97 % of control | dose: 400.0 mg/kg/injection, schedule: Q04DX002 (ip), vehicle: carboxymethylcellulose (CMC) 93 % of control and 86 % of control | dose: 400.0 mg/kg/injection, schedule: Q04DX003 (ip), vehicle: carboxymethylcellulose (CMC) 97 % of control

COc1ccccc1C[N+](C)(C)C
inactive: dose: 20.0 mg/kg/injection, schedule: Q01DX001 (ip), vehicle: saline 95 % of control | dose: 20.0 mg/kg/injection, schedule: Q01DX009 (ip), vehicle: saline 108 % of control | dose: 40.0 mg/kg/injection, schedule: Q01DX001 (ip), vehicle: saline 97 % of control | dose: 40.0 mg/kg/injection, schedule: Q01DX009 (ip), vehicle: saline 108 % of control | dose: 80.0 mg/kg/injection, schedule: Q01DX001 (ip), vehicle: saline 102 % of control

N#C/C(=C\c1c(O)ccc2ccccc12)c1ccc([N+](=O)[O-])cc1
inactive: dose: 66.0 mg/kg/injection, schedule: Q01DX009 (ip), vehicle: saline with Tween-80 89 % of control | [3] 91 % of control | dose: 150.0 mg/kg/injection, schedule: Q01DX009 (ip), vehicle: saline with Tween-80 86 % of control

S=C1NCC2CCc3c(ccc4ccccc34)N12 (stereo not drawn)
inactive: dose: 100.0 mg/kg/injection, schedule: Q01DX001 (ip), vehicle: other 97 % of control | dose: 200.0 mg/kg/injection, schedule: Q01DX001 (ip), vehicle: other 90 % of control | dose: 400.0 mg/kg/injection, schedule: Q01DX001 (ip), vehicle: other 95 % of control

O=C(Nc1nccs1)c1cc2ccccc2cc1O
inactive: [4] 97 % of control | [5] 87 % of control | [6] 87 % of control

CC(=O)Oc1ccc([N+](=O)[O-])cc1C(OC(C)=O)OC(C)=O
inactive: dose: 55.0 mg/kg/injection, schedule: Q01DX Z (ip), vehicle: methylcellulose (MC) 90 % of control | dose: 83.0 mg/kg/injection, schedule: Q01DX Z (ip), vehicle: methylcellulose (MC) 96 % of control | dose: 125.0 mg/kg/injection, schedule: Q01DX Z (ip), vehicle: methylcellulose (MC) 93 % of control

NC(=O)c1ccccc1NC(=O)Nc1c(Cl)cccc1Cl
inactive: [7] 94 % of control | [8] 106 % of control | [9] 120 % of control

C=C(Br)C(C)(C)C
inactive: [10] 101 % of control | [11] 101 % of control | [12] 101 % of control

O=C1NCC(Nc2ccccc2Cl)C(=O)N1 (stereo not drawn)
inactive: dose: 100.0 mg/kg/injection, schedule: Q01DX Z (ip), vehicle: saline 96 % of control

CCCCCCCCCC(C)(O)C#CC(C)(O)CCCCCCCCC (stereo not drawn)
inactive: dose: 50.0 mg/kg/injection, schedule: Q01DX001 (ip), vehicle: carboxymethylcellulose (CMC) 93 % of control | dose: 50.0 mg/kg/injection, schedule: Q04DX003 (ip), vehicle: carboxymethylcellulose (CMC) 91 % of control | dose: 100.0 mg/kg/injection, schedule: Q01DX001 (ip), vehicle: carboxymethylcellulose (CMC) 95 % of control | [1] 89 % of control | dose: 200.0 mg/kg/injection, schedule: Q01DX001 (ip), vehicle: carboxymethylcellulose (CMC) 91 % of control | [2] 89 % of control | dose: 400.0 mg/kg/injection, schedule: Q01DX001 (ip), vehicle: carboxymethylcellulose (CMC) 100 % of control

NS(=O)(=O)c1ccc(N=Cc2cc(Cl)cc(Cl)c2O)cc1
inactive: [7] 101 % of control | [8] 106 % of control | [9] 106 % of control

O=[N+]([O-])CC(O)c1ccccc1Cl (stereo not drawn)
inactive: dose: 50.0 mg/kg/injection, schedule: Q01DX009 (ip), vehicle: saline with Tween-80 95 % of control | [3] 98 % of control

CCOC(=O)/C(O)=C(\C=N\C(N)=O)C(=O)OCC
inactive: dose: 100.0 mg/kg/injection, schedule: Q04DX003 (ip), vehicle: saline sonified 93 % of control | dose: 200.0 mg/kg/injection, schedule: Q04DX003 (ip), vehicle: saline sonified 103 % of control | dose: 400.0 mg/kg/injection, schedule: Q04DX003 (ip), vehicle: saline sonified 95 % of control

O=C=Nc1ccccc1-c1ccccc1
inactive: [4] 98 % of control | [5] 98 % of control | [6] 100 % of control

O=C(Nc1ccc(S(=O)(=O)F)cc1)/C(=C\c1ccc([N+](=O)[O-])cc1)c1cccc2ccccc12
inactive: [11] 91 % of control | [12] 99 % of control | dose: 400.0 mg/kg/injection, schedule: Q01DX009 (ip), vehicle: saline 94 % of control

CCN1C(=O)NC(=O)/C(=C/N(CCO)CCO)C1=O
inactive: [7] 106 % of control | [13] 94 % of control | [8] 101 % of control | [14] 98 % of control | [9] 100 % of control | [15] 93 % of control

COc1ccc2c(c1)c(CC(=O)O)c(Br)n2Cc1ccccc1
inactive: dose: 100.0 mg/kg/injection, schedule: Q01DX001 (ip), vehicle: Klucel (hydroxypropylcellulose) (HPC) 112 % of control | [13] 98 % of control | dose: 200.0 mg/kg/injection, schedule: Q01DX001 (ip), vehicle: Klucel (hydroxypropylcellulose) (HPC) 112 % of control | [14] 100 % of control | dose: 400.0 mg/kg/injection, schedule: Q01DX001 (ip), vehicle: Klucel (hydroxypropylcellulose) (HPC) 101 % of control | [15] 102 % of control

CN1CCC(c2ccccc2)(c2ccccc2)OC1
inactive: [16] 94 % of control

O=C(O)/C=C/C(=O)NNC(=O)/C=C/C(=O)O
inactive: [16] 98 % of control | dose: 200.0 mg/kg/injection, schedule: Q04DX003 (ip), vehicle: saline with Tween-80 98 % of control

COc1ccc(Cl)cc1CCCO
inactive: dose: 50.0 mg/kg/injection, schedule: Q01DX001 (ip), vehicle: saline 100 % of control | dose: 100.0 mg/kg/injection, schedule: Q01DX001 (ip), vehicle: saline 100 % of control | dose: 200.0 mg/kg/injection, schedule: Q01DX001 (ip), vehicle: saline 92 % of control | dose: 400.0 mg/kg/injection, schedule: Q01DX001 (ip), vehicle: saline 119 % of control

Clc1ccc(/C=N\c2nn[nH]n2)c(Cl)c1 (tested in a mixture with another compound)
inactive: [17] 89 % of control | [18] 89 % of control | [19] 98 % of control

Cc1c(-c2ccccc2)sc(/N=C/c2cc(Br)cc(Br)c2O)c1C#N
inactive: [3] 99 % of control and 111 % of control | [4] 112 % of control and 90 % of control | [20] 97 % of control and 86 % of control | [5] 93 % of control and 102 % of control | dose: 400.0 mg/kg/injection, schedule: Q01DX009 (ip), vehicle: saline with Tween-80 94 % of control | [6] 106 % of control and 107 % of control

OCNC(=S)SSC(=S)NCO
inactive: [17] 96 % of control | [18] 98 % of control | [19] 98 % of control

O=C(Nc1ccc(F)c(Cl)c1)N(CCO)C1CCCCC1
inactive: [13] 101 % of control | [14] 100 % of control | [15] 92 % of control

Oc1ccc(C2(c3ccc(O)cc3)CCCCC2)cc1
inactive: dose: 25.0 mg/kg/injection, schedule: Q01DX009 (ip), vehicle: alcohol 112 % of control | dose: 50.0 mg/kg/injection, schedule: Q01DX009 (ip), vehicle: alcohol 117 % of control | dose: 100.0 mg/kg/injection, schedule: Q01DX009 (ip), vehicle: alcohol 87 % of control | [3] 89 % of control | [20] 92 % of control

COC(C)C(Br)C(=O)O (stereo not drawn)
inactive: [10] 98 % of control | [11] 95 % of control | [17] 88 % of control | [12] 90 % of control | [18] 90 % of control
